Test results from patent publication US20260286012A1, “ANTI-OUABAIN NANOBODY AND APPLICATION THEREOF” (priority 2023, published 2026).

Tests used:
Hela cells [1] = test: MTT determination of cell survival rate; type: cell-based; parameters: dose or concentration left out as unconfirmed; settings: ouabain for 48 h and 24 h, respectively
Experimental: By methyl thiazolyl tetrazolium (MTT), the cell survival rate was measured. When the cell density in a 6-well plate reached 80%-90%, the cells were digested, and centrifuged at 1000 rpm for 5 min; a cell precipitate was left, added with 1 mL of culture solution and then resuspended; and the cells were counted with a cell counting plate. 100 µL of cell suspension was added to a 96 ELISA plate at 1×10^4 cells/well, and sterile PBS was added around cell wells. The cells were cultured on a 96-well plate for 12 to 24 h. When the cell growth density reached 60% to 80%, a drug could be added to treat the cells at this point. […] The absorbance of each well was detected with a microplate reader at 490 nm and the cell survival rate was calculated. […]
(§1) High-concentration ouabain can lead to apoptosis of cells. To study the pharmacological effect of ouabain Nb, this study treated Hela cells with ouabain and ouabain Nb, and detected the effects of ouabain and antibody protein on the cell survival rate by an MTT method. […] To further verify the biological activity of ouabain Nb, the Ca^2+ concentration in the HeLa cells was detected by neutralizing ouabain monomers with ouabain Nb. […] After incubation of ouabain Nb (5 μM) and ouabain, the cells were treated and the Ca^2+ concentration was detected.

Hela cells [2] = test: Flow cytometry assay for intracellular Ca2+ level; type: cell-based; settings: 250 nM ouabain vs control group
Experimental: The cells were cultured in a 12-well cell culture dish. When the cell growth density reached 60% to 80%, a drug could be added to treat the cells. The medium was removed from the treated cells under dark conditions, and the cells were rinsed with pre-warmed HBSS for three times to eliminate esterases and other substances in the medium to reduce their degradation to an ion probe. 1-5 μM of Fluo4-AM working solution was added, such that the cells were completely covered with the working solution and incubated in a cell incubator for 40 min at a constant temperature. The Fluo4-AM working solution was discarded, and the cells were washed with HBSS for three times to thoroughly remove any remaining dye Subsequently. […]
as §1

In the case of C[C@@H]1O[C@@H](O[C@H]2C[C@@H](O)[C@]3(CO)[C@H]4[C@H](O)C[C@]5(C)[C@@H](C6=CC(=O)OC6)CC[C@]5(O)[C@@H]4CC[C@]3(O)C2)[C@H](O)[C@H](O)[C@H]1O [ouabain, Ouabain], the “survival rate of the cells treated with ouabain” value (Hela cells [1]) is reported as “reduced to half of the original” and the “Ca2+ concentration in HeLa cells” value (Hela cells [2]) is reported as “significantly higher than that in the control group”.
